Test results from patent US8735622B2, “Histone demethylase inhibitors and methods for using the same” (The Regents of the University of Colorado, a body corporate, priority 2011, dated 2014).

Key:
[1] = biological target: T1, JHDM1A (Homo sapiens, UniProt Q9Y2K7); assay: Fluorescence polarization (FP) binding assay, JHDM1A; details: read-out: dissociation constant (Kd) to JHDM1A
T1 sequence (Q9Y2K7 1-1162): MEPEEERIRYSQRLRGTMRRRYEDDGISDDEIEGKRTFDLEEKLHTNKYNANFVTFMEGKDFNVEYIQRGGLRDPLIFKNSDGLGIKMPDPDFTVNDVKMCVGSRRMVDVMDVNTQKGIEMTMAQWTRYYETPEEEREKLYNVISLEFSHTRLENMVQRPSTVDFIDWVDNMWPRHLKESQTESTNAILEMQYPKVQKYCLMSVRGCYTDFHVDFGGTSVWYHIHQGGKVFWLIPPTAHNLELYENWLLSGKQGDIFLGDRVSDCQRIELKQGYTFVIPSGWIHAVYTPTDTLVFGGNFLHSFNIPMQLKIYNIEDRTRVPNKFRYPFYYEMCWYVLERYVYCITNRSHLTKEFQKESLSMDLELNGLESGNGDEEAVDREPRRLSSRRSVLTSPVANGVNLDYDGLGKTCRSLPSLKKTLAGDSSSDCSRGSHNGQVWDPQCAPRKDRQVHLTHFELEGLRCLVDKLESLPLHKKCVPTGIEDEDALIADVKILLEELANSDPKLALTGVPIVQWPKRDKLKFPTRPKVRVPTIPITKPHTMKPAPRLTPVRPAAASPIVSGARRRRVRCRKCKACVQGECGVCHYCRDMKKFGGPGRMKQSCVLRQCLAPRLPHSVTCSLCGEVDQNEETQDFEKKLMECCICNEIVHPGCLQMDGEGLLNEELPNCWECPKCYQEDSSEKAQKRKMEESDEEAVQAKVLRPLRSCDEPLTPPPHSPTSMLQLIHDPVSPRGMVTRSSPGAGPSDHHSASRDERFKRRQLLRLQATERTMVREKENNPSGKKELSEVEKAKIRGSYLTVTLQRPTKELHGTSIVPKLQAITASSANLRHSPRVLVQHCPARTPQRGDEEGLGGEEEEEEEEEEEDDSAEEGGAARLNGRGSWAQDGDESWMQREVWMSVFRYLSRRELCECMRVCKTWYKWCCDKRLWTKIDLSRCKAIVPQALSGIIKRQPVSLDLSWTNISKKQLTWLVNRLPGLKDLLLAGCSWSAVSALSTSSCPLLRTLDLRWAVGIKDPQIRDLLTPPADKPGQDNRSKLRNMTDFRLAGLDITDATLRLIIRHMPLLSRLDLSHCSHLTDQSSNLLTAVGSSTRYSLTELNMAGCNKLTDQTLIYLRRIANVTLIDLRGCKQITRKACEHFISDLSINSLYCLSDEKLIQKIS
Protocol: (§1) To measure fluorescence polarization, a Perkin Elmer EnVision 2102 Multilabel plate reader equipped with FP-FITC optic module was used. Corning half-area, black, flat-bottom, polystyrene, 96-well plates (cat. #: 3993) were used for all FP studies. Auto-adjustment of focal height and gain was performed in the well containing 80 μL of 1 nM fluorophore 20, the recommended concentration of fluorescein for this plate reader.
(§2) The dissociation constant (Kd) for fluorophore 20 to GST-JMJD2A(1-420) was measured (See FIG. 8) by titrating 20 (1 nM) with purified JMJD2A using protocols reported by Rossi et al. in Nat. Protoc., 2011, 6(3), 365-87. Fluorescence intensity values in parallel (i.e., I11) and perpendicular (i.e., I⊥) planes for each well were measured after 2 h of incubation at room temperature. For each experimental measurement, the protein background was subtracted, and the polarization (P) was calculated using these corrected values of I11 and I⊥ from the equation: P=(I11−G·I⊥)/(I11+G·I⊥), where the G factor is derived from the instrument auto-adjustment step. […] The Kd for 20 and JHDM1A was determined as 30±5 nM in a similar fashion.

[2] = biological target: T2, GST-JMJD2A(1-420) (Homo sapiens, UniProt O75164); assay: Fluorescence polarization (FP) binding assay, JMJD2A; details: 1 nM fluorophore, 2 h at room temperature, read-out: dissociation constant (Kd) to GST-JMJD2A(1-420)
T2 construct: Recombinant protein preparation of GASC1(1-420), JMJD2A (1-420) and LSD1 (full-length); made in house; host or cells: Escherichia coli BL-21
T2 sequence (O75164 1-420): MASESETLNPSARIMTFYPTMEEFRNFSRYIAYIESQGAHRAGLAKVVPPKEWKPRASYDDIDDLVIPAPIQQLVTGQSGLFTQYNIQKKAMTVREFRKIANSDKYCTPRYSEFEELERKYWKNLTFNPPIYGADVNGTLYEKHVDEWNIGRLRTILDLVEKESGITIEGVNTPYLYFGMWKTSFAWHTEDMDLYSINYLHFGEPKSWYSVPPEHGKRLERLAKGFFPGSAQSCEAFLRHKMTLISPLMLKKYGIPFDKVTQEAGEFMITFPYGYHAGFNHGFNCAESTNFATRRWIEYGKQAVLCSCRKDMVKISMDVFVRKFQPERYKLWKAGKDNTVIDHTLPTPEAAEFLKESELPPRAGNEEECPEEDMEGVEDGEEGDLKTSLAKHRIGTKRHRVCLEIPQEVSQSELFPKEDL
Protocol: as §1, §2

[3] = test system: H3K4me3 and H3K9me3 levels in KYSE150 cells; assay: Quantitative immunostaining assay of H3K4me3 and H3K9me3 in KYSE150 cells; assay type: cell-based, human; details: 2.5 μM, 48 h
Protocol: To quantify the cellular activity of methylstat, a quantitative image-based assay was used. […] The cellular effects of methylstat were also cell type-specific.
For quantified immunostaining experiments, KYSE150 or MCF7 cells were seeded in a 96-well plate at 10,000 cells per well and incubated at 37° C. for 24 hours. The medium was replaced and methylstat in DMSO was added at the concentration as indicated. After incubation for another 48 hours, immunostaining procedure was performed as described above using anti-H3K9me3 or anti-H3K4me3 primary antibody. Fluorescent images of cells were acquired by a Nikon Eclipse 90i fluorescence microscope and analyzed using the Cell Scoring analysis module of MetaMorph 7.0 software.

[4] = test system: prolyl hydroxylases (PHDs); assay: Cellular HIF-1α level (prolyl hydroxylase specificity) in MCF7 cells; assay type: cell-based, human; details: 24 hours, methylstat up to 15 μM, DFO 150 μM, DMOG 1 and 2 mM
From the text: To assess the specificity of methylstat in vivo, another iron(II)- and α-ketoglutarate-dependent dioxygenases, prolyl hydroxylases (PHDs), was examined. PHDs have been reported to regulate normoxic inactivation of hypoxia-inducible factors (HIFs) by hydroxylating specific prolyl residues of HIFs. […] DMOG and DFO have been used to mimic hypoxia conditions by inhibiting PHDs in vivo. […] Similar results were also observed in HeLa cells (see FIG. 7).
Total lysates of cells were generated from the cells lysed in CelLytic M Cell Lysis (Sigma) with protease inhibitor cocktail (Sigma), mixed with 2×LSB buffer (100 mM Tris-HCl pH 6.8, 200 mM DTT, 4% SDS, 20% glycerol and 0.2% bromophenol blue) and boiled for 5 min before SDS-PAGE. BCA assay (Thermo) was applied for protein qualification.

Row | Compound | cellular activity in H3K4me3- and H3K9me3-immunostaining assays relative to methylstat [3] | cellular HIF-1α levels / prolyl hydroxylase inhibition [4] | other results
1 | NCc1ccc(CN(CCCCN(O)C(=O)/C=C/C(=O)O)C(=S)Nc2ccc(C3=C4C=CC(=O)C=C4Cc4cc(O)ccc43)c(C(=O)O)c2)cc1 [Compound 20] | – | – | Kd [1]: 0.03 ± 0.005 µM; Kd [2]: 0.175 ± 0.042 µM
2 | COC(=O)C(=O)N(O)CCCCNCc1ccc(COC(=O)Nc2cccc3ccccc23)cc1 [Compound 23a] | significantly decreased cellular activity | – | –
3 | COC(=O)/C=C/C(=O)N(O)CCCC[N+](C)(C)Cc1ccc(COC(=O)Nc2cccc3ccccc23)cc1.[I-] [Compound 23f] | reduced its activity | – | –
4 | COC(=O)CNC(=O)C(=O)OC [DMOG, dimethyl oxalylglycine, reference compound] | – | significantly increased cellular levels of HIF-1α | –
5 | deferoxamine mesylate salt [DFO, reference compound] | – | significantly increased cellular levels of HIF-1α | –
